Measurements as given in the NIST ThermoML archive (doi:10.1021/je700308j).
Values joined by “and” are separate entries in the source; they are usually repeats but may differ in a detail not shown here. Equal entries are not always repeated. ± gives the expanded uncertainty stated by the source.

How the values were obtained:
[1] = excess molar enthalpy (molar enthalpy of mixing); xn = mol fraction of the nth substance listed; details: 298.15 K, 101 kPa, Liquid, Flow calorimetry
[2] = xn = mol fraction of the nth substance listed; details: 298.15 K, 101 kPa, Liquid
[3] = heat capacity at constant pressure per volume; xn = mol fraction of the nth substance listed; details: 298.15 K, 101 kPa, Liquid, Flow calorimetry

CCCCCCCCC [nonane] + C1CCOC1
[1]
Details	excess molar enthalpy
x2 = 0.104	0.0714 ± 0.00115 kcal/mol
x2 = 0.197	0.124 ± 0.00191 kcal/mol
x2 = 0.355	0.189 ± 0.00263 kcal/mol
x2 = 0.485	0.213 ± 0.00263 kcal/mol
x2 = 0.595	0.212 ± 0.00263 kcal/mol
x2 = 0.688	0.195 ± 0.00311 kcal/mol
x2 = 0.768	0.169 ± 0.00382 kcal/mol
x2 = 0.837	0.134 ± 0.00502 kcal/mol
x2 = 0.898	0.0974 ± 0.00669 kcal/mol
x2 = 0.952	0.0514 kcal/mol and 0.0513 kcal/mol

C1CCOC1 [tetrahydrofuran] + CCCCCCCCO
Details	heat capacity, [3] [J/K/m3]	mass density, [2] [kg/m3]
x1 = 0.0608	1927000 ± 4000	823.33 ± 0.42
x1 = 0.088	1918000 ± 4000	824.18 ± 0.41
x1 = 0.1954	1884000 ± 4000	827.86 ± 0.37
x1 = 0.3048	1850000 ± 4000	832.05 ± 0.35
x1 = 0.4026	1817000 ± 4000	836.34 ± 0.32
x1 = 0.5009	1781000 ± 4000	841.27 ± 0.3
x1 = 0.6069	1737000 ± 4000	847.37 ± 0.28
x1 = 0.7044	1691000 ± 3000	853.86 ± 0.26
x1 = 0.7994	1640000 ± 3000	861.36 ± 0.24
x1 = 0.9	1580000 ± 3000	870.65 ± 0.22
x1 = 0.9523	1546000 ± 3000	876.26 ± 0.22

C1CCOC1 [tetrahydrofuran] + CCCCO
Details	heat capacity, [3] [J/K/m3]	mass density, [2] [kg/m3]
x1 = 0.0456	1918000 ± 4000	808.89 ± 0.28
x1 = 0.0951	1901000 ± 4000	812.34 ± 0.28
x1 = 0.1935	1867000 ± 4000	819.24 ± 0.27
x1 = 0.2997	1830000 ± 4000	826.84 ± 0.26
x1 = 0.3963	1794000 ± 4000	833.86 ± 0.26
x1 = 0.5009	1753000 ± 4000	841.67 ± 0.25
x1 = 0.5988	1711000 ± 3000	849.16 ± 0.24
x1 = 0.6962	1667000 ± 3000	856.68 ± 0.23
x1 = 0.8012	1615000 ± 3000	865.12 ± 0.22
x1 = 0.9017	1564000 ± 3000	873.45 ± 0.22
x1 = 0.9472	1541000 ± 3000	877.34 ± 0.21
